{
  "source": "paper PMC9049331",
  "about": "“X-ray crystal structure of the Escherichia coli RadD DNA repair protein bound to ADP reveals a novel zinc ribbon domain” (PLoS ONE, 2022)",
  "target": "T1, RadD (Escherichia coli, UniProt P33919)",
  "T1 construct": "open reading frame of E. coli radD from plasmid pEAW724, no tag mentioned, expressed in E. coli STL2669 (DE3)",
  "T1 sequence (P33919 1-586)": "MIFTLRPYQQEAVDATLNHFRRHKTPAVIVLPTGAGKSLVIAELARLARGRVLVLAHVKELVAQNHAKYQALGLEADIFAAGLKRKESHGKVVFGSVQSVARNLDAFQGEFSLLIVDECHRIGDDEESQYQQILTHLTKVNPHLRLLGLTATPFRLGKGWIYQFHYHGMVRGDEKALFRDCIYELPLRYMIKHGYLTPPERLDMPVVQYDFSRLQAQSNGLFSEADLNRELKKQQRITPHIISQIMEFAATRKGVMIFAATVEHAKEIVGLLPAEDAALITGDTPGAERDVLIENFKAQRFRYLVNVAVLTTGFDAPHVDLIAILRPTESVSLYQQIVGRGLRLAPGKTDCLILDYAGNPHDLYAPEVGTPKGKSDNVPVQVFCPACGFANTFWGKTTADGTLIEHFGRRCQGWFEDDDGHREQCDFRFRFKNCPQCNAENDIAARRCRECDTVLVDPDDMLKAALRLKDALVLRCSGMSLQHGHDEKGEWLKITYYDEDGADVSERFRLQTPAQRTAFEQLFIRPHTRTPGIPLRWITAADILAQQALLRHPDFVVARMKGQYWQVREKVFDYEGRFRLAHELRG",
  "assay": "X-ray crystal structure, […] A",
  "type": "binding",
  "details": "crystallised with 1 mM ATPgammaS, ADP presumed from slow hydrolysis; Mg2+; pH 7.7; 4 C; ATPase site",
  "data": [
    {"smiles": "Nc1ncnc2c1ncn2[C@@H]1O[C@H](COP(=O)(O)OP(=O)(O)O)[C@@H](O)[C@H]1O", "note": "[ADP]", "values": [
      {"measurement": "X-ray crystal structure, 2.03 A", "result": "ADP was modelled in the RadD active site"}
    ]}
  ]
}
